According to patent US12331026B2 (NiKang Therapeutics, Inc., priority 2022, dated 2025):

Target: T1, CDK2 (Homo sapiens, UniProt P24941)
T1 construct: endogenous in cells; host or cells: OVCAR3 cells
Assay: Phospho-RB measurement in OVCAR3 cells (HTRF phospho-RB S807/811)
Type: cell-based
Details: phosphorylation of RB protein at S807/811, HTRF, 24 h compound treatment, 0.3 to 10,000 nM, read-out: pRb (uM)
Summary of the method: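 IC50 values come from four-parameter logistic fits of the DMSO-normalised 665/620 nm TR-FRET ratio for phospho-RB (S807/811). Antibody detection ran 4 h at room temperature.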

IC50 [µM]	SMILES
0.15	O=S1(=O)CC2(CC(Nc3nccc(-c4sc(C56CC(C(F)(F)F)(C5)C6)nc4-c4cccc(NS(=O)(=O)c5c(Cl)cccc5C(F)(F)F)c4F)n3)C2)C1 [Example 91, 2-chloro-N-(3-(5-(2-((2,2-dioxido-2-thiaspiro[3.3]heptan-6-yl)amino)pyrimidin-4-yl)-2-(3-(trifluoromethyl)bicyclo-[1.1.1]pentan-1-yl)thiazol-4-yl)-2-fluorophenyl)-6-(trifluoromethyl)benzenesulfonamide]
0.04	O=S1(=O)CC2(CC(Nc3nccc(-c4sc(C56CC(C(F)F)(C5)C6)nc4-c4cccc(NS(=O)(=O)c5c(F)cccc5C(F)(F)F)c4F)n3)C2)C1 [Example 92, N-(3-(2-(3-(difluoromethyl)bicyclo[1.1.1]pentan-1-yl)-5-(2-((2,2-dioxido-2-thiaspiro[3.3]heptan-6-yl)amino)pyrimidin-4-yl)thiazol-4-yl)-2-fluorophenyl)-2-fluoro-6-(trifluoromethyl)benzenesulfonamide]
0.04	O=S1(=O)CC2C(C1)C2Nc1nccc(-c2sc(C34CC(C3)C4)nc2-c2cccc(NS(=O)(=O)c3c(F)cccc3F)c2F)n1 (stereo not shown) [Example 93, N-(3-(2-(bicyclo[1.1.1]pentan-1-yl)-5-(2-((3,3-dioxido-3-thiabicyclo[3.1.0]hexan-6-yl)amino)pyrimidin-4-yl)thiazol-4-yl)-2-fluorophenyl)-2,6-difluorobenzenesulfonamide]
0.28	O=S1(=O)C[C@@H]2[C@H](C1)[C@@H]2Nc1nccc(-c2sc(N3C4CCC3CN(C3CC(F)(F)C3)C4)nc2-c2cccc(NS(=O)(=O)c3c(F)cccc3F)c2F)n1 [Example 94, N-(3-(2-(3-(3,3-difluorocyclobutyl)-3,8-diazabicyclo[3.2.1]octan-8-yl)-5-(2-(((1R,5S,6s)-3,3-dioxido-3-thiabicyclo[3.1.0]hexan-6-yl)amino)pyrimidin-4-yl)thiazol-4-yl)-2-fluorophenyl)-2,6-difluorobenzenesulfonamide]
0.13	O=S1(=O)C[C@@H]2[C@H](C1)[C@H]2Nc1nccc(-c2sc(C3(C(F)F)CC3)nc2-c2cccc(NS(=O)(=O)c3c(F)cccc3F)c2F)n1 [Example 98, N-(3-(2-(1-(difluoromethyl)cyclopropyl)-5-(2-(((1R,5S,6r)-3,3-dioxido-3-thiabicyclo[3.1.0]hexan-6-yl)amino)pyrimidin-4-yl)thiazol-4-yl)-2-fluorophenyl)-2,6-difluorobenzenesulfonamide]
0.06	O=S1(=O)C[C@@H]2[C@H](C1)[C@H]2Nc1nccc(-c2sc(C34CCC(CC3)C4)nc2-c2cccc(NS(=O)(=O)c3c(F)cccc3F)c2F)n1 [Example 99, N-(3-(2-(bicyclo[2.2.1]heptan-1-yl)-5-(2-(((1R,5S,6r)-3,3-dioxido-3-thiabicyclo[3.1.0]hexan-6-yl)amino)pyrimidin-4-yl)thiazol-4-yl)-2-fluorophenyl)-2,6-difluorobenzenesulfonamide]
0.1	CC1(C)CCN1c1nc(-c2cccc(NS(=O)(=O)c3c(F)cccc3F)c2F)c(-c2ccnc(N[C@H]3[C@@H]4CS(=O)(=O)C[C@@H]43)n2)s1 [Example 100, N-(3-(2-(2,2-dimethylazetidin-1-yl)-5-(2-(((1R,5S,6r)-3,3-dioxido-3-thiabicyclo[3.1.0]hexan-6-yl)amino)pyrimidin-4-yl)thiazol-4-yl)-2-fluorophenyl)-2,6-difluorobenzenesulfonamide]
0.17	C[C@H]1COC[C@H](C)N1c1nc(-c2cccc(NS(=O)(=O)c3c(F)cccc3F)c2F)c(-c2ccnc(N[C@H]3[C@@H]4CS(=O)(=O)C[C@@H]43)n2)s1 [Example 101, N-(3-(2-((3S,5S)-3,5-dimethylmorpholino)-5-(2-(((1R,5S,6r)-3,3-dioxido-3-thiabicyclo[3.1.0]hexan-6-yl)amino)pyrimidin-4-yl)thiazol-4-yl)-2-fluorophenyl)-2,6-difluorobenzenesulfonamide]
0.19	O=S1(=O)C[C@@H]2[C@H](C1)[C@@H]2Nc1nccc(-c2sc(C34CC(C3)C4)nc2-c2cccc(NS(=O)(=O)c3c(F)cccc3C(F)(F)F)c2F)n1 [Example 102, N-(3-(2-(bicyclo[1.1.1]pentan-1-yl)-5-(2-(((1R,5S,6s)-3,3-dioxido-3-thiabicyclo[3.1.0]hexan-6-yl)amino)pyrimidin-4-yl)thiazol-4-yl)-2-fluorophenyl)-2-fluoro-6-(trifluoromethyl)benzenesulfonamide]
0.1	O=S1(=O)C[C@@H]2[C@H](C1)[C@H]2Nc1nccc(-c2sc(C34CC(C3)C4)nc2-c2cccc(NS(=O)(=O)c3c(F)cccc3C(F)(F)F)c2F)n1 [Example 103, N-(3-(2-(bicyclo[1.1.1]pentan-1-yl)-5-(2-(((1R,5S,6r)-3,3-dioxido-3-thiabicyclo[3.1.0]hexan-6-yl)amino)pyrimidin-4-yl)thiazol-4-yl)-2-fluorophenyl)-2-fluoro-6-(trifluoromethyl)benzenesulfonamide]
0.08	CS(=O)(=O)[C@H]1CC[C@H](Nc2nccc(-c3sc(C4(C(F)(F)F)CC4)nc3-c3cccc(NS(=O)(=O)c4c(F)cccc4C(F)(F)F)c3F)n2)CC1 [Example 104, 2-fluoro-N-(2-fluoro-3-(5-(2-(((1r,4r)-4-(methylsulfonyl)-cyclohexyl)amino)pyrimidin-4-yl)-2-(1-(trifluoromethyl)-cyclopropyl)thiazol-4-yl)phenyl)-6-(trifluoromethyl)benzenesulfonamide]
0.68	O=S1(=O)C[C@@H]2[C@H](C1)[C@@H]2Nc1nccc(-c2sc(N3C4CCC3CN(C3CC(F)(F)C3)C4)nc2-c2cccc(NS(=O)(=O)c3c(F)cccc3F)c2F)n1 [Example 106, N-(3-(2-(3-(3,3-difluorocyclobutyl)-3,8-diazabicyclo[3.2.1]octan-8-yl)-5-(2-(((1R,5S,6s)-3,3-dioxido-3-thiabicyclo[3.1.0]hexan-6-yl)amino)pyrimidin-4-yl)thiazol-4-yl)-2-fluorophenyl)-2,6-difluorobenzenesulfonamide]
0.15	O=S1(=O)C[C@@H]2[C@H](C1)[C@H]2Nc1nccc(-c2sc(N3C4CCC3CN(C3CC(F)(F)C3)C4)nc2-c2cccc(NS(=O)(=O)c3c(F)cccc3F)c2F)n1 [Example 107, N-(3-(2-(3-(3,3-difluorocyclobutyl)-3,8-diazabicyclo[3.2.1]octan-8-yl)-5-(2-(((1R,5S,6r)-3,3-dioxido-3-thiabicyclo[3.1.0]hexan-6-yl)amino)pyrimidin-4-yl)thiazol-4-yl)-2-fluorophenyl)-2,6-difluorobenzenesulfonamide]
0.1	O=S1(=O)C[C@@H]2[C@H](C1)[C@@H]2Nc1nccc(-c2sc(N3C4CCC3CN(C3CC(F)(F)C3)C4)nc2-c2cccc(NS(=O)(=O)c3c(F)cccc3C(F)(F)F)c2F)n1 [Example 108, N-(3-(2-(3-(3,3-difluorocyclobutyl)-3,8-diazabicyclo[3.2.1]octan-8-yl)-5-(2-(((1R,5S,6s)-3,3-dioxido-3-thiabicyclo[3.1.0]hexan-6-yl)amino)pyrimidin-4-yl)thiazol-4-yl)-2-fluorophenyl)-2-fluoro-6-(trifluoromethyl)benzenesulfonamide]
0.09	O=S1(=O)C[C@@H]2[C@H](C1)[C@H]2Nc1nccc(-c2sc(N3C4CCC3CN(C3CC(F)(F)C3)C4)nc2-c2cccc(NS(=O)(=O)c3c(F)cccc3C(F)(F)F)c2F)n1 [Example 109, N-(3-(2-(3-(3,3-difluorocyclobutyl)-3,8-diazabicyclo[3.2.1]octan-8-yl)-5-(2-(((1R,5S,6r)-3,3-dioxido-3-thiabicyclo[3.1.0]hexan-6-yl)amino)pyrimidin-4-yl)thiazol-4-yl)-2-fluorophenyl)-2-fluoro-6-(trifluoromethyl)benzenesulfonamide]
0.08	CN1CC2CCC(C1)N2c1nc(-c2cccc(NS(=O)(=O)c3c(F)cccc3C(F)(F)F)c2F)c(-c2ccnc(NC3[C@H]4CS(=O)(=O)C[C@@H]34)n2)s1 (stereo partly drawn) [Example 111, N-(3-(5-(2-(((1R,5S,6s)-3,3-dioxido-3-thiabicyclo[3.1.0]hexan-6-yl)amino)pyrimidin-4-yl)-2-(3-methyl-3,8-diazabicyclo[3.2.1]octan-8-yl)thiazol-4-yl)-2-fluorophenyl)-2-fluoro-6-(trifluoromethyl)benzenesulfonamide]
0.03	O=S1(=O)CC2C(C1)C2Nc1nccc(-c2sc(N3C4CCC3COC4)nc2-c2cccc(NS(=O)(=O)c3c(F)cccc3C(F)(F)F)c2F)n1 (stereo not shown) [Example 112, N-(3-(2-(3-oxa-8-azabicyclo[3.2.1]octan-8-yl)-5-(2-((3,3-dioxido-3-thiabicyclo[3.1.0]hexan-6-yl)amino)pyrimidin-4-yl)thiazol-4-yl)-2-fluorophenyl)-2-fluoro-6-(trifluoromethyl)benzenesulfonamide]
0.07	O=S1(=O)C[C@@H]2[C@H](C1)[C@H]2Nc1nccc(-c2sc(C34CC(C3)C4)nc2-c2cccc(NS(=O)(=O)c3c(F)cccc3OC(F)F)c2F)n1 [Example 113, N-(3-(2-(bicyclo[1.1.1]pentan-1-yl)-5-(2-(((1R,5S,6r)-3,3-dioxido-3-thiabicyclo[3.1.0]hexan-6-yl)amino)pyrimidin-4-yl)thiazol-4-yl)-2-fluorophenyl)-2-(difluoromethoxy)-6-fluorobenzenesulfonamide]
0.3	C[C@H]1COC[C@H](C)N1c1nc(-c2cccc(NS(=O)(=O)c3c(F)cccc3C(F)(F)F)c2F)c(-c2ccnc(N[C@H]3[C@@H]4CS(=O)(=O)C[C@@H]43)n2)s1 [Example 114, N-(3-(2-((3S,5S)-3,5-dimethylmorpholino)-5-(2-(((1R,5S,6r)-3,3-dioxido-3-thiabicyclo[3.1.0]hexan-6-yl)amino)pyrimidin-4-yl)thiazol-4-yl)-2-fluorophenyl)-2-fluoro-6-(trifluoromethyl)benzenesulfonamide]
